target: MAPK14 (human) (UniProt Q16539); test: Inhibition of MAPK14 Kinase Activtiy
Sequence (Q16539 whole entry, looked up): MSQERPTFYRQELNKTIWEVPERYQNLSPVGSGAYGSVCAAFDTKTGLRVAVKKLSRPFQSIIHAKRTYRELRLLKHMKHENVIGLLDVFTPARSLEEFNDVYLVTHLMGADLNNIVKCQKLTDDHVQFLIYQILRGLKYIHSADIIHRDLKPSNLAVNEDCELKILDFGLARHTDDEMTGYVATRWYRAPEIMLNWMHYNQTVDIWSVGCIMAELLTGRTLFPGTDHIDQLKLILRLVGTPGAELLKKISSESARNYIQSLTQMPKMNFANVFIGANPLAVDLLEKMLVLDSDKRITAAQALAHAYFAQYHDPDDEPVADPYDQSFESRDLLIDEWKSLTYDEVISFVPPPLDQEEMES

IC50, < 100 nM:
O=C(O)[C@@H](NCCCOc1cc(-c2ccc(F)cc2Cl)c2ccc(=O)n(-c3c(Cl)cccc3Cl)c2c1)c1ccccc1
O=C(O)[C@@H](NCCCOc1cc(-c2ccc(F)cc2Cl)c2ccc(=O)n(-c3c(F)cccc3F)c2c1)c1ccccc1
CC(C)C[C@H](NCCCOc1cc(-c2ccc(F)cc2Cl)c2ccc(=O)n(-c3c(Cl)cccc3Cl)c2c1)C(=O)O
CC(C)C[C@H](NCCCCCOc1cc(-c2ccc(F)cc2Cl)c2ccc(=O)n(-c3c(Cl)cccc3Cl)c2c1)C(=O)O
CC(C)C[C@H](NCCCOc1cc(-c2ccc(F)cc2Cl)c2ccc(=O)n(-c3c(F)cccc3F)c2c1)C(=O)O
O=C(O)[C@@H](NCCCOc1cc(-c2ccc(F)cc2Cl)c2ccc(=O)n(-c3c(Cl)cccc3Cl)c2c1)C1CCCCC1
CC(C)C[C@H](NCCCOc1cc(-c2ccc(F)cc2Cl)c2ccc(=O)n(-c3c(Cl)cccc3Cl)c2c1)C(=O)OC1CCN(C)CC1
CC(C)C[C@H](NC[C@@H](O)COc1cc(-c2ccc(F)cc2Cl)c2ccc(=O)n(-c3c(F)cccc3F)c2c1)C(=O)O
CC(C)C[C@H](NC[C@H](O)COc1cc(-c2ccc(F)cc2Cl)c2ccc(=O)n(-c3c(F)cccc3F)c2c1)C(=O)O
CC(C)C[C@H](NCCCOc1cc(-c2ccc(F)cc2Cl)c2ccc(=O)n(-c3c(Cl)cccc3Cl)c2c1)C(=O)OC1CCCC1
CC(C)C[C@H](NCCCOc1cc(-c2ccc(F)cc2F)c2ccc(=O)n(-c3c(F)cccc3F)c2c1)C(=O)O
CC(C)C[C@H](NCCc1cc(-c2ccc(F)cc2Cl)c2ccc(=O)n(-c3c(F)cccc3F)c2c1)C(=O)O
CC(C)(C)OC[C@H](NCCCOc1cc(-c2ccc(F)cc2Cl)c2ccc(=O)n(-c3c(Cl)cccc3Cl)c2c1)C(=O)OC1CCCC1
O=C(O)[C@@H](NCCCOc1cc(-c2ccc(F)cc2Cl)c2ccc(=O)n(-c3c(F)cccc3F)c2c1)C1CCCCC1
CC(C)C[C@H](NCCc1cc(-c2ccc(F)cc2Cl)c2ccc(=O)n(-c3c(Cl)cccc3Cl)c2c1)C(=O)O
CC(C)(C)[C@H](NCCCOc1cc(-c2ccc(F)cc2Cl)c2ccc(=O)n(-c3c(Cl)cccc3Cl)c2c1)C(=O)O
CC(C)C[C@H](NCCCOc1cc(-c2ccc(F)cc2Cl)c2ccc(=O)n(-c3ccccc3)c2c1)C(=O)O
CC(C)C[C@H](NC1CCC(c2cc(-c3ccc(F)cc3Cl)c3c(c2)N(c2c(Cl)cccc2Cl)C(=O)CC3)CC1)C(=O)O (stereo not given in full)
CC(C)(C)OC[C@H](NCCCOc1cc(-c2ccc(F)cc2Cl)c2ccc(=O)n(-c3c(Cl)cccc3Cl)c2c1)C(=O)O
CC(C)C[C@H](NCCCOc1cc(-c2ccc(F)cc2Cl)c2ccc(=O)n(-c3c(Cl)cccc3Cl)c2c1)C(=O)OC(C)C

Reference: the Kinase Knowledgebase extract (Sharma et al. 2016)
